Marks after values point to notes of the source that are not given here. Square brackets hold non-standard residues; d marks the D form. Peptide text beside a SMILES is read from it. * marks the point of attachment. Sta = CC(C)C[C@H](N)[C@@H](O)CC(=O)O; Isovaleryl = CC(C)CC(=O)*
Columns and labels:
[1] = system: Escherichia coli Nissle 1917 (EcN); assay: Growth kinetic curves of Escherichia coli Nissle 1917 (OD600, DMFit); format: cell-based; conditions: for Effect on lag phase of EcN compared with control: 2 mg/mL, in words
Procedure: (§1) Escherichia coli K12 (K12) was chosen as a representative enteric species, and E. coli Nissle 1917 (EcN) was chosen as a representative probiotic strain. Both strains were obtained from the bacterial strain collection in Food Microbiology Laboratory (Dairy department, Faculty of Agriculture, Mansoura University, Egypt). An overnight culture of both strains was activated in nutrient broth (NB) (BD Difco™, Bacton, Dickinson and Company Sparks, MD, USA) at 37 °C for 16–18 h. The culture was diluted on test days in buffered peptone water to a final concentration of 1.5 × 10^8 colony forming units (CFU)/mL cell counts were assessed by pour plate method, one mL of a suitable dilution was incubated on nutrient agar at 37 °C for 24 h. colonies were then counted and converted to CFU/mL ([Dawood et al., 2021]).
An aliquot (100 µL) of EcN was inoculated into NB (BD Difco ^TM) and incubated at 37 °C for 24 h. An overnight culture of EcN was further streaked onto nutrient agar and incubated for 48 h at 37 °C. The EcN culture was diluted in sterile saline solution (0.85%) on the day of assay to adjust the final cell count to 1.5 × 10^8 CFU/mL. Bacterial growth was determined in NB supplemented with individual pure compounds (1–8) or extracts (methanol, petroleum ether, and ethyl acetate) at 2 mg/mL. Growth kinetics of EcN were monitored spectrophotometrically by OD600 every of 60 min at 37 °C ([Pacheco-Ordaz et al., 2018]). DMFit ver. 2.1 an Excel add-in was used to determine: doubling time (Td), lag time, maximum growth at the stationary phase (Y max, OD), and specific growth rate (µmax, OD).

[2] = system: Escherichia coli Nissle 1917 (EcN); assay: Prebiotic index of EcN (CFU on sample vs CFU on glucose); format: cell-based; conditions: 2 mg/mL, 24 h, ratio to growth on 2 mg/mL glucose
Procedure: as §1
Prebiotic index (PI) was estimated as previously described ([Dawood et al., 2021]). E. coli Nissle 1917 was used as the representative probiotic strain. Aliquots containing 10^7 CFU of an overnight culture of EcN were inoculated into separate tubes containing NB. Two mg/mL of extracts or isolated phenolic compounds or 2 mg/mL of glucose as a positive control was added, and growth of EcN was assessed as the number of viable colonies forming units (CFU)/mL after incubation for 24 h using the pour method on nutrient agar, followed by incubation at 37 °C for 24 h. PI is the ratio of growth of EcN in NB supplemented with individual compounds or extracts to growth on glucose. A PI greater than one indicates a positive influence on the growth of EcN. PI was calculated as follows:(1) PI=CFUofEcNinPhenolicCompounds(asprebiotic)/CFUofECNinglucose(ascontrolcarbohydrate)

[3] = biological target: angiotensin-converting enzyme (ACE) (Homo sapiens, UniProt P12821); assay: Angiotensin-converting enzyme inhibitory activity (HHL cleavage, 228 nm); format: biochemical; conditions: whey of yogurt enriched at 2 mg/mL, after 7 days of refrigerated storage; in words
Sequence of angiotensin-converting enzyme (ACE) (P12821 30-1306, species assumed): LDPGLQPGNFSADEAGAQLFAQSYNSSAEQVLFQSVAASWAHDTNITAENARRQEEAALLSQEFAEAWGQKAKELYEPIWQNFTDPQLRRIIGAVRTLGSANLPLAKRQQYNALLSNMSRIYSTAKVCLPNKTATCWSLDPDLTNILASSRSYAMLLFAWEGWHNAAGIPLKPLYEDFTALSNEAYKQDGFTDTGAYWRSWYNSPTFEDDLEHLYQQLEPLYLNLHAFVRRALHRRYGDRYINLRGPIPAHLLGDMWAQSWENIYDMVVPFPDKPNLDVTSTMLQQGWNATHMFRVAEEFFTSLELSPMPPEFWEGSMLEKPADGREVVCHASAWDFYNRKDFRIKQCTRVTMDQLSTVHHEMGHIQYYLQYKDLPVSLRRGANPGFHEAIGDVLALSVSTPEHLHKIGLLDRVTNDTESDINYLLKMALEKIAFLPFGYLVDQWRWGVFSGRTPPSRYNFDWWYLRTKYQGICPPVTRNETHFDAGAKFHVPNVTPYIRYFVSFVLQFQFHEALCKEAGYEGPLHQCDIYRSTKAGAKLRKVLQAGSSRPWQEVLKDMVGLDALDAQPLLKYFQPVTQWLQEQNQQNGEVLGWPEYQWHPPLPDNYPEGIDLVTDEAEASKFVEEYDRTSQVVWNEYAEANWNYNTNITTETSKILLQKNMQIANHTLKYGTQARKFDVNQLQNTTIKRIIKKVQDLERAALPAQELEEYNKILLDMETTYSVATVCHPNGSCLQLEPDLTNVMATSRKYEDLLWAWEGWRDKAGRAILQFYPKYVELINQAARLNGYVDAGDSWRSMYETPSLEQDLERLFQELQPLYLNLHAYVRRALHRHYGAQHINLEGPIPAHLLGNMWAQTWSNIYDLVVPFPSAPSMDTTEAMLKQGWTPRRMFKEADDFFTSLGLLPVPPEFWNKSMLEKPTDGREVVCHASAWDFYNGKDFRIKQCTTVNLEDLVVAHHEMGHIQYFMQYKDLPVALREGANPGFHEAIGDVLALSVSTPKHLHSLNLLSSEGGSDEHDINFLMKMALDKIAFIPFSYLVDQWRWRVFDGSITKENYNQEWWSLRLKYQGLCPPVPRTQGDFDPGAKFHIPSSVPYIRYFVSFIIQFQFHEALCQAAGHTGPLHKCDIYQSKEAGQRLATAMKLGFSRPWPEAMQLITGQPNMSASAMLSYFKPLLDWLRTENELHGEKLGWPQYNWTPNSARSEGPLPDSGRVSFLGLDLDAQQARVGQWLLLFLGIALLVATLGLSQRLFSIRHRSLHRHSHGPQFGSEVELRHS
Procedure: Lyophilized aqueous extract (whey) obtained from yogurt enriched with extracts or individual compounds at 2 mg/mL was used. […] The method depends on hipuryl-histdylleucine (HHL) cleavage to hippuric acid by ACE. HHL (3.8 mM) was diluted in 0.1 M borate buffer (200 μL; pH 8.3), including 0.3 M NaCl, then 35 μL of sample solution (2 mg/mL) was added, and the mixture incubated for 10 min at 37 °C. The reaction was initiated by adding 20 μL of ACE solution (0.1 U/mL in borate buffer) and allowed to proceed for 30 min at 37 °C. HCl (250 μL of a 1 M solution) was then added to stop the reaction. […] Subsequently, 1 mL of supernatant (ethyl acetate) was collected in a new tube and placed in boiling water for 30 min to eliminate the solvent. The remaining hippuric acid residue was dissolved in 1 mL of distilled water, and absorbance was measured at 228 nm using distilled water as a blank. All samples were analyzed in triplicate. Captopril (0.008 mg/mL) was used as a positive control, and lyophilized aqueous extract (whey) obtained from plain yogurt was used as a negative control. The calculation of ACE inhibitory activity was determined as follows:(3) ACE inhibition%=[1-(A-C)/(B-D)]×100 where A is absorbance with the sample, HHL, and ACE; B is absorbance with HHL and ACE without sample; C is absorbance with sample and HHL; D is absorbance with HHL without sample and ACE.

[4] = system: α-amylase; assay: α-amylase inhibition (starch, dinitrosalicylic acid, 540 nm); format: biochemical; conditions: samples at 2 mg/mL; acarbose 5 µg/mL positive control; in words
Procedure: α-amylase inhibition was determined as previously reported ([Hu et al., 2013]). Briefly, 200 µL of 20 mM sodium phosphate buffer (pH 7.0 with 6 mM NaCl), including α-amylase (10 U/mL) and 200 µL of sample (2 mg/mL), was incubated at 37 °C for 45 min. A potato starch solution (400 µL; 0.5%) was added to each sample and incubated at 37 °C in a shaking water bath (100 rpm) for 10 min. The enzymatic reaction was stopped with dinitrosalicylic acid color reagent. Screw cape tubes were transferred to a water bath at 100 °C for 10 min, then cooled to room temperature. Finally, samples were diluted with 3 mL of deionized water (3 mL). Absorbance of diluted reaction mixtures was measured spectrophotometrically at 540 nm (Spectro UV–VIS Auto, UV2602, Labomed, USA). Test and control samples were compared and expressed as percentage inhibition of α-amylase. Acarbose (5 µg/mL) was used as a positive control, and samples in buffer without test compounds or extracts were included as negative controls.

[5] = system: E. coli Nissle 1917 (EcN) versus Escherichia coli K12; assay: Prebiotic activity score (EcN growth relative to enteric E. coli K12, vs glucose); format: cell-based; conditions: EcN vs E. coli K12, 24 h at 37 °C
Procedure: as §1
Log E is log of CFU/mL of K12 at zero time (E0) and 24 h (E24) of culture on glucose and pure compounds. Individual pure compounds or extracts that induce a high value of Pscore improve EcN growth compared with the growth rate of EcN on glucose. Support of K12 growth by pure compounds or extracts theoretically should be low compared to growth of K12 on glucose.

[6] = biological target: pepsin (Homo sapiens, UniProt P0DJD8); assay: Protease (pepsin) inhibition with bovine serum albumin substrate; format: biochemical; conditions: samples at 2 mg/mL; Pepstatin A 0.5 µg/mL positive control; in words
Sequence of pepsin (P0DJD8 63-388): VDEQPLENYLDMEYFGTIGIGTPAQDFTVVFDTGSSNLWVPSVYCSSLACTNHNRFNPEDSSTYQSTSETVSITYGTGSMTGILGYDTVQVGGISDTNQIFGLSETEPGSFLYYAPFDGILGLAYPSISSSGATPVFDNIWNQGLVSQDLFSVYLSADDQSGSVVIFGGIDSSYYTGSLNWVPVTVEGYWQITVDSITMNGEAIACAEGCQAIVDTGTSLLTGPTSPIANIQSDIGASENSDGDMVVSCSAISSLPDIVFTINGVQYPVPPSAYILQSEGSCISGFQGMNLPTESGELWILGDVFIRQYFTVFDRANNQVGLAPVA
Procedure: Protease used the protocol of [Hu et al. (2013]). Briefly, 100 µL of pepsin solution (1 mg pepsin/1 mL of 0.02 N HCl) was mixed with 0.5 mL of 10 mg/mL bovine serum albumin and 0.5 mL of extracts or pure compounds (2 mg/mL) and incubated for 30 min at 37 °C. TCA (0.9 mL 5%) was added to stop the reaction, followed by centrifugation (4800g, 15 min). Protein concentration in the final supernatant was determined using Coomassie (Bradford) protein assay kits. Pepstatin A (0. 5 µg/mL) was used as a positive control.

[7] = EcN in nutrient broth supplemented at 2 mg/mL, 37 °C, n = 3

Row | Compound | Effect on lag phase of EcN compared with control [1] | Lag (min) [1, 7] | Prebiotic index (PI) [2] | other results
1 | COc1cc(O)c2c(c1)C(=O)c1cc(C)cc(O)c1C2=O [Compound 3, physcion] | significantly (P < 0.05) decreased lag phase | 180 ^b min |  | 
2 | CC(=O)c1c(C)cc2cccc(O[C@@H]3O[C@H](CO)[C@@H](O)[C@H](O)[C@H]3O)c2c1O [Compound 7, 6-methyl-7-acetyl-1,8-dihydroxy naphthalene-1-O-β-D-glucoside] | significantly (P < 0.05) decreased lag phase | 180 ^b min |  | 
3 | Cc1cc(O)c2c(c1)C(=O)c1cc(O)cc(O)c1C2=O [Compound 5, emodin] |  | 240 ^a min | 1.14 ± 0.20 | ACE inhibitory activity [3]: the lowest inhibitory activity of ACE compared with other compounds
4 | Cc1cc(O)c2c(c1)C(=O)c1cccc(O)c1C2=O [Compound 2, chrysophanol] | significantly (P < 0.05) decreased lag phase | 180 ^b min |  | 
5 | CC[C@@H](CCC(C)C1CCC2C3CC=C4C[C@@H](O[C@@H]5O[C@H](CO)[C@@H](O)[C@H](O)[C@H]5O)CC[C@]4(C)C3CC[C@]12C)C(C)C (stereo partly drawn) [Compound 6, β-sitosterol 3-O-β-D-glucoside] | significantly (P < 0.05) decreased lag phase | 180 ^b min |  | 
6 | C[C@H]1O[C@H](O[C@H]2[C@H](O)[C@@H](O)[C@@H](O[C@H]3[C@H](O)[C@@H](O)C(O)O[C@@H]3CO)O[C@@H]2CO)[C@H](O)[C@@H](O)[C@@H]1N[C@H]1C=C(CO)[C@@H](O)[C@H](O)[C@H]1O (some centres unmarked) [acarbose, Acarbose] |  |  |  | Inhibition of α-amylase activity [4]: inhibition was greater than for either extracts
7 | CC[C@H](CC[C@@H](C)[C@H]1CC[C@H]2[C@@H]3CC=C4C[C@@H](O)CC[C@]4(C)[C@H]3CC[C@]12C)C(C)C [Compound 4, β-sitosterol] | significantly (P < 0.05) decreased lag phase | 60 ^c min | 3.05 ± 0.47 | Td (min), doubling time [1, 7]: 39.71 min; Prebiotic activity score (Pscore) [5]: about 3.02 ± 0.48
8 | CC(C)CC(=O)N[C@H](C(=O)N[C@H](C(=O)N[C@@H](CC(C)C)[C@@H](O)CC(=O)N[C@@H](C)C(=O)N[C@@H](CC(C)C)[C@@H](O)CC(=O)O)C(C)C)C(C)C [Pepstatin, Pepstatin A] (Isovaleryl-VV[Sta]A[Sta]-OH) |  |  |  | Inhibition of pepsin (protease) activity [6]: inhibitory activity greater than for any extracts or isolated compounds
9 | CCO[C@@H]1O[C@H](CO)[C@@H](O)[C@H](O)[C@H]1O [Compound 8, ethyl β-D-glucopyranoside] | significantly (P < 0.05) decreased lag phase | 180 ^b min |  | 
10 | CC(=O)c1c(C)cc2cccc(O)c2c1O [Compound 1, Nepodin] |  | 240 ^a min | 0.94 ± 0.24 | ACE inhibitory activity [3]: the highest compared with other isolated compounds

Reference: paper PMC9043391, “Isolation and biological activities of compounds from Rumex vesicarius L. and their use as a component of a synbiotic preparation” (Food Chemistry: X, 2022)
